According to ChEMBL document CHEMBL1201862, “PubChem BioAssay data set” (2004):
Active and inactive are the calls of the source.

Columns and labels:
[1] = viability of uninfected HEp-2 cells – cell-based, HTS, cytotoxicity control for RSV inhibitor project, dose response (AID 2410); format: functional; conditions: human respiratory syncytial virus
Phospholipase A2 = Phospholipase A2 (Homo sapiens, UniProt P04054); format: functional;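 further: confirmatory dose-response counterscreen on phospholipase A2, testing hits that came from an ultra-high-throughput screen for ATG4B inhibitors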
Cysteine protease ATG4B = molecular target: T1, Cysteine protease ATG4B (Homo sapiens, UniProt Q9Y4P1); format: functional;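 further: Fluorescence-based dose-response confirmation assay measuring inhibition of ATG4B activity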
T1 sequence (Q9Y4P1 whole entry): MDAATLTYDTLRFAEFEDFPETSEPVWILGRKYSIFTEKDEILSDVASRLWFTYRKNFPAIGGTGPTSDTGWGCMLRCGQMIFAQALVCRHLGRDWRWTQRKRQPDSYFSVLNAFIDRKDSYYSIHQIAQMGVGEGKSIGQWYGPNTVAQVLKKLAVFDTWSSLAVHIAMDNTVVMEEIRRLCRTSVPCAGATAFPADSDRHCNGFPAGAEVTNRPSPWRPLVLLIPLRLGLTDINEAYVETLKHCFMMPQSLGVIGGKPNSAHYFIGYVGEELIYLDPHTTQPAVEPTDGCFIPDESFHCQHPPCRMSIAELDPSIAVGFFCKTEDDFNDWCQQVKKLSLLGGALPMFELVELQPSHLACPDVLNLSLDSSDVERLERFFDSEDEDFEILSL

H9c2 = experiment: cells; format: functional, cell-based; conditions: Rattus norvegicus, H9c2, Myocardium;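 further: confirmatory concentration-response retest of ultra-high-throughput screening hits for modulation of myocardial damage; cell death induced by hydrogen peroxide oxidative stress; compound pretreatment for 60 min then peroxide exposure for 2 h; potency is for protecting the cells against peroxide damage rather than for killing them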
Streptococcus = experiment: GAS UMAA2166 growth inhibition – luminescence, BacTiterGlo, counter-screen for streptokinase expression inhibitor project, dose response (AID 1915); format: functional, organism-based;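 further: potency for reduction of bacterial viability or growth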
[2] = molecular target: T2, Sentrin-specific protease 8 (Homo sapiens, UniProt Q96LD8); format: functional;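 further: luminescence read-out of SENP8 inhibition, dose-response confirmation following an ultra-high-throughput screen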
T2 sequence (Q96LD8 whole entry): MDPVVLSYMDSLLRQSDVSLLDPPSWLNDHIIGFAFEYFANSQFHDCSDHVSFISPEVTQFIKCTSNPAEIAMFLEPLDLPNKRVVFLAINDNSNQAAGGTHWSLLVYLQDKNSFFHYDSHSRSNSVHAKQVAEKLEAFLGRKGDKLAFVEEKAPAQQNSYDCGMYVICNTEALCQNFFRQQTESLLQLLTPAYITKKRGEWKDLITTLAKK

[3] = molecular target: T3, Sentrin-specific protease 6 (Homo sapiens, UniProt Q9GZR1); format: functional;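 further: Luminescence-based dose-response confirmatory assay of SENP6 inhibition, following up an ultra-high-throughput screen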
T3 sequence (Q9GZR1 whole entry): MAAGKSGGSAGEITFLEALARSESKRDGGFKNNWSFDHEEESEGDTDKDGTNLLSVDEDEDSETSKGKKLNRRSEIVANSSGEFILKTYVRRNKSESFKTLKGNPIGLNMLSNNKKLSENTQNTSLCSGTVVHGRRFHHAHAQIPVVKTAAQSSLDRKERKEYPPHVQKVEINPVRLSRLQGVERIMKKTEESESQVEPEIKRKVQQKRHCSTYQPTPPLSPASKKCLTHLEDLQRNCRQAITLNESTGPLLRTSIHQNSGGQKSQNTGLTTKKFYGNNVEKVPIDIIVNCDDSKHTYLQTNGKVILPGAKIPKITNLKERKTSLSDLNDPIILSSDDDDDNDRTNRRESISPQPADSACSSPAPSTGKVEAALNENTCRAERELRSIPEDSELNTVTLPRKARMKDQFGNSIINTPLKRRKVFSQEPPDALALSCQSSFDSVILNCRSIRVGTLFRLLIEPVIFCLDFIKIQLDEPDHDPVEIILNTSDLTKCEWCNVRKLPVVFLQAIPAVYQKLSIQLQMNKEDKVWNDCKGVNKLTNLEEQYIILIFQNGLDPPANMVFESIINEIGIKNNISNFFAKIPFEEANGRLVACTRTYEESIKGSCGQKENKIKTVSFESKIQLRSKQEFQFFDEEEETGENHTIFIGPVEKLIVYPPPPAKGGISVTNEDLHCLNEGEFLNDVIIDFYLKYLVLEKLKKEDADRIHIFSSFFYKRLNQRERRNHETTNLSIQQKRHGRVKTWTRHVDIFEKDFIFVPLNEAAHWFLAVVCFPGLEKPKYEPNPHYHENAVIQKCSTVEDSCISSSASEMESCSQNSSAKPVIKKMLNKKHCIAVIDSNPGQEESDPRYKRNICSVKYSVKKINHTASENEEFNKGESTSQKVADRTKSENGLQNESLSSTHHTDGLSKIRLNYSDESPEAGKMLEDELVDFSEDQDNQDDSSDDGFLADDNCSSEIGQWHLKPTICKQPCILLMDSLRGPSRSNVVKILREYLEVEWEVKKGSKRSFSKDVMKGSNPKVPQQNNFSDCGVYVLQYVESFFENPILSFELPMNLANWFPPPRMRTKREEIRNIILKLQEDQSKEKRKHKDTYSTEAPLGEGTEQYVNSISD

Streptokinase A = molecular target: T4, Streptokinase A (Streptococcus pyogenes serotype M1, UniProt P10520); experiment: viability-normalized secreted streptokinase activity reduction – plasminogen activation absorbance, OD405, dose response (AID 1914); format: functional, Streptococcus pyogenes M1 GAS;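 further: secreted streptokinase activity via plasminogen activation per viability signal from cell pellet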
T4 sequence (P10520 whole entry): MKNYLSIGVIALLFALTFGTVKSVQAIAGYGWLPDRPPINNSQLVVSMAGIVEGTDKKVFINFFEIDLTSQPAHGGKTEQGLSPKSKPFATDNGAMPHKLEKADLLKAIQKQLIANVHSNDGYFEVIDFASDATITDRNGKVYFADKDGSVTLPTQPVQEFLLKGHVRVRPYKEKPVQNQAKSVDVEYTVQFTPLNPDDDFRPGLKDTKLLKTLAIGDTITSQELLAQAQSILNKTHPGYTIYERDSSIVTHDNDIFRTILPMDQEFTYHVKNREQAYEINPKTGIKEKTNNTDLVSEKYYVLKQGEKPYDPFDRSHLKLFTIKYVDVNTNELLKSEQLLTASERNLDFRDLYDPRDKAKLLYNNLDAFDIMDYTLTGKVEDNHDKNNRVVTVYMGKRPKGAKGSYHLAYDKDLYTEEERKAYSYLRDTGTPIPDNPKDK

Caspase-3 = molecular target: T5, Caspase-3 (Homo sapiens, UniProt P42574); format: functional;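 further: Dose-response selectivity test against caspase-3 for candidate inhibitors of sentrin-specific proteases (SENPs)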
T5 sequence (P42574 whole entry): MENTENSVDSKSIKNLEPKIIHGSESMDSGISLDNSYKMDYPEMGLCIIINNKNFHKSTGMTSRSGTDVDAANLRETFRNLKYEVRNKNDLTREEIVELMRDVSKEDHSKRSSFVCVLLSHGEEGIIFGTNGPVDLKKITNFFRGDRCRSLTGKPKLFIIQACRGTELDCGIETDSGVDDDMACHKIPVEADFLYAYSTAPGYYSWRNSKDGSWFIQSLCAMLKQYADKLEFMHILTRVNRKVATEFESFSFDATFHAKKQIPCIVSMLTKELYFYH

[4] = test system: Streptococcus sp. 'group A'; experiment: Streptococcus pyogenes SK(-)GAS viability under kanamycin – luminescence, BacTiterGlo, confirmation, counter-screen for streptokinase expression inhibitor project, dose response (AID 1900); format: functional, organism-based
[5] = molecular target: T6, Sentrin-specific protease 7 (Homo sapiens, UniProt Q9BQF6); format: functional;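 further: Luminescence-based dose-response confirmation of ultra-high-throughput screening hits, measuring inhibition of SENP7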
T6 sequence (Q9BQF6 whole entry): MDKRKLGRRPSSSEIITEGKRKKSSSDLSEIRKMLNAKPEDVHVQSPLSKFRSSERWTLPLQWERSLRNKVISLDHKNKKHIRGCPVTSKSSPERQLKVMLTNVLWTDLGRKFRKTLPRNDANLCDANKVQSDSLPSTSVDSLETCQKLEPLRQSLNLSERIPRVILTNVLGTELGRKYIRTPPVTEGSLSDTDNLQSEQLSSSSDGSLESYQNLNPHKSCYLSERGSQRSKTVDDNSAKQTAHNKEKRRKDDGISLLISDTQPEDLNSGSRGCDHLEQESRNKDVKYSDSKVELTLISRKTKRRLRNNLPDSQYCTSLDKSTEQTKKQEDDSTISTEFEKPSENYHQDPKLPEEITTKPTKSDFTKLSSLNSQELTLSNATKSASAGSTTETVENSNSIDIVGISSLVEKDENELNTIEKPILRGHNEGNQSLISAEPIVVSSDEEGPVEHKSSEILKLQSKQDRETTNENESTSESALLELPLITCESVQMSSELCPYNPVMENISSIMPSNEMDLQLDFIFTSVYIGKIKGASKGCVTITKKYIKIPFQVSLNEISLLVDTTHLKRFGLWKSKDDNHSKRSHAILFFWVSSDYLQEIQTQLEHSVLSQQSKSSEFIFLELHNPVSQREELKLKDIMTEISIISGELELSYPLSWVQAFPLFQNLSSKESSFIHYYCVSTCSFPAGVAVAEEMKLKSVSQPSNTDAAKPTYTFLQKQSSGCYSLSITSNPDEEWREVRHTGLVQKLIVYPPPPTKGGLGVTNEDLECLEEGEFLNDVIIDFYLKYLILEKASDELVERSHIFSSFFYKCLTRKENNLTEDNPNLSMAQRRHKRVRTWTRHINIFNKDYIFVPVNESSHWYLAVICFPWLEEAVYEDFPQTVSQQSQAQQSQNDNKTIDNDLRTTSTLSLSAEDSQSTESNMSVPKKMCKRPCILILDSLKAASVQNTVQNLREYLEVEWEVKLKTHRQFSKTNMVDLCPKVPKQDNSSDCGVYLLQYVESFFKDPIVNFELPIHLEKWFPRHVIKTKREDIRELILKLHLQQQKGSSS

Aminopeptidase N = molecular target: T7, Aminopeptidase N (Plasmodium falciparum FcB1/Columbia, UniProt O96935); experiment: malaria alanyl aminopeptidase activity blockers – biochemical, fluorogenic H-Leu-NHMec substrate, 1536-well (AID 1445); set-up: species or system Plasmodium falciparum 3D7, 3D7
T7 sequence (O96935 whole entry): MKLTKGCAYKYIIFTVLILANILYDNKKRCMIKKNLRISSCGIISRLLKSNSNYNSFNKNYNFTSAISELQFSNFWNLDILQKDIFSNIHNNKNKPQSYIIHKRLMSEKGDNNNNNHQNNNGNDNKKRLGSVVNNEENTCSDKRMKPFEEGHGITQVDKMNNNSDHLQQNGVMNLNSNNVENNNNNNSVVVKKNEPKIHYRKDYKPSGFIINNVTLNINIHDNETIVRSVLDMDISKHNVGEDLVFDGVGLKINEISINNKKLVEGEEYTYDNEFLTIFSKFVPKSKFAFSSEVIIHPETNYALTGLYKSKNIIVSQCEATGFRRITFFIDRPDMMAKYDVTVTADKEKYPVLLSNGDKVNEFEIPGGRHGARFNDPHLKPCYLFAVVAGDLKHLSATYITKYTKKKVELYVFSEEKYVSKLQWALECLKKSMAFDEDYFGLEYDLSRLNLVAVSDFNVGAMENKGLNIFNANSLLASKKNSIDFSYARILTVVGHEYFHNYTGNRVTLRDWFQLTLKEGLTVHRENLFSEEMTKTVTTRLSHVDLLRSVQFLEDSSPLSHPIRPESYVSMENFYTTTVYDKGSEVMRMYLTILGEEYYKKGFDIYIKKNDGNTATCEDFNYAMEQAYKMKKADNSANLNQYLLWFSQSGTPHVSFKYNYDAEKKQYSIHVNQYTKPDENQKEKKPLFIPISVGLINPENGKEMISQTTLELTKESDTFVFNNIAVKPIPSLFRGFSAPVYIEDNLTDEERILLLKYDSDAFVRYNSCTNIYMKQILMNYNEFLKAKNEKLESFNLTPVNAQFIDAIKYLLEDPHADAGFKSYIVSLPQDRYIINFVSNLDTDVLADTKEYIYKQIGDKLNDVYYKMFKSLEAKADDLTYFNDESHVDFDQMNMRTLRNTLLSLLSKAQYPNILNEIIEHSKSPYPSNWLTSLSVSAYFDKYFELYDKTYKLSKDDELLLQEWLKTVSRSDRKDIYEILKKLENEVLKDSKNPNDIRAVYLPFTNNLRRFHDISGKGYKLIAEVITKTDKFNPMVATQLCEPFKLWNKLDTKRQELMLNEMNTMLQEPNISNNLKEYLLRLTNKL

[6] = molecular target: Heat shock protein HSP 90-alpha (Homo sapiens, UniProt P07900); format: functional, organism-based
[7] = NIH-3T3 fibroblast cytotoxicity, dose response, cytotoxicity control, cell-based, fluorescence, Alamar Blue, secondary assay (AID 2327); format: functional;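 further: NIH-3T3 mouse fibroblasts cultured with fluconazole at 8 µg/mL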
INS1 = experiment: INS-1E survival protection against cytokine death – cell-based, luminescence, retest, dose response (AID 449756); format: functional; conditions: Rattus norvegicus;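 further: cell death triggered by IL-1 beta plus TNF-alpha plus IFN-gamma mixture; protective hits raise ATP signal compared with cytokine alone wells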
[8] = fluconazole-exposed Candida albicans growth modulators – fluorescence, retest, confirmation (AID 2467); format: functional, cell-based

Sequence of Phospholipase A2 (P04054 whole entry): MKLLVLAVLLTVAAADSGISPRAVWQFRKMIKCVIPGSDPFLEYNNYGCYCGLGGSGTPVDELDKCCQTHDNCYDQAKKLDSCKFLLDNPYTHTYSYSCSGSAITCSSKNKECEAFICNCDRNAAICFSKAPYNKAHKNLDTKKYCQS

| SMILES | IC50 (Phospholipase A2) | IC50 (Cysteine protease ATG4B) | IC50 [2] | IC50 [3] | IC50 (Caspase-3) | IC50 [5] | other results |
| --- | --- | --- | --- | --- | --- | --- | --- |
| Cc1ccc(S(=O)(=O)Nc2ccccc2/C=N/c2nc3ccccc3n2C(C)C)cc1 | 13.2 µM (active) | 15.1 µM (active) |  |  |  |  | CC50 [1]: 14.9 µM (active) |
| CN(C)S(=O)(=O)c1ccc2[nH]cc(/C=C/c3nc4ccccc4c(=O)n3-c3ccccc3)c2c1 | 46.6 µM (inactive) | 18.6 µM (active) |  |  |  |  | IC50 (H9c2): > 79 µM (inactive) |
| Cc1nc(N/N=C\c2ccc3c(c2)OCO3)sc1C |  |  | 72.7 µM (active) | 39.1 µM (active) | 33.2 µM (active) | 12 µM (active) | EC50 (Streptococcus): 31.7 µM (active); EC50 (Streptokinase A): > 150 µM (not active); EC50 [4]: 23.6 µM (active) |
| Cc1cccc(C)c1OCc1nc2ccccc2c(=O)n1/N=C/c1ccc(OCC(=O)O)cc1 | 9.81 µM (active) | 14.7 µM (active) |  |  |  |  | IC50 (Aminopeptidase N): < 1 µM (active) |
| C=CCn1c(C)cc(C(=O)CSc2nnc(NCc3ccccc3)s2)c1C |  |  |  |  |  |  | AC50 [6]: 4.03 µM (active) |
| COc1ccc2oc3ccc(OC)cc3c(=O)c2c1 |  |  | 69.1 µM (active) | 15.1 µM (active) | 11 µM (active) | 9.8 µM (active) |  |
| O=C(Nc1nc2c(cc3c4c(cccc42)CC3)s1)c1ccccc1Cl | 15.7 µM (active) | > 80 µM (inactive) |  |  |  |  |  |
| C=CCn1c(-c2oc3nc(-c4ccccc4)cc(-c4ccccc4)c3c2N)n[nH]c1=S | 20.7 µM (inactive) | 21.5 µM (inactive) |  |  |  |  |  |
| COc1ccc(C(=O)NC(=S)NNC(=O)c2cnccn2)cc1 |  |  |  |  |  |  | EC50 [7]: 9.88 µM (active); AC50 (INS1): 933 nM (active); AC50 [6]: 2.71 µM (active); EC50 [8]: 2.02 µM (active) |
| OC(c1ccc(OCc2ccccc2)cc1)c1nnc(-c2ccccc2)o1 (stereo unspecified) |  |  | 75.6 µM (active) | 33.2 µM (active) | 69.2 µM (active) | 12.8 µM (active) | EC50 (Streptococcus): > 150 µM (not active); EC50 (Streptokinase A): 77.8 µM (active); EC50 [4]: 19 µM (active) |
